Results published in PubChem BioAssay (NCI).
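Compound exposure: 48 hours, 5 concentrations, 96-well plates. TGI marks complete inhibition of growth.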

Key:
Assay in all cases: NCI anticancer screen, dose series, 48 h
MCF7 breast = tested on: MCF7 breast
BT-549 breast = tested on: BT-549 breast
UACC-62 melanoma = tested on: UACC-62 melanoma
PC-3 prostate = tested on: PC-3 prostate
SN12C renal = tested on: SN12C renal
UACC-257 melanoma = tested on: UACC-257 melanoma
TK-10 renal = tested on: TK-10 renal
OVCAR-5 ovarian = tested on: OVCAR-5 ovarian
SF-268 CNS = tested on: SF-268 CNS
HCT-15 colon = tested on: HCT-15 colon
SK-MEL-2 melanoma = tested on: SK-MEL-2 melanoma
MDA-MB-231 breast = tested on: MDA-MB-231 breast
786-0 renal = tested on: 786-0 renal
ACHN renal = tested on: ACHN renal
SW-620 colon = tested on: SW-620 colon
IGROV1 ovarian = tested on: IGROV1 ovarian
HCT-116 colon = tested on: HCT-116 colon
NCI-H23 lung = tested on: NCI-H23 lung
T-47D breast = tested on: T-47D breast
UO-31 renal = tested on: UO-31 renal
SNB-19 CNS = tested on: SNB-19 CNS
A549 NSCLC = tested on: A549 NSCLC
OVCAR-3 ovarian = tested on: OVCAR-3 ovarian
MALME-3M melanoma = tested on: MALME-3M melanoma
RPMI-8226 leukemia = tested on: RPMI-8226 leukemia
LOX IMVI melanoma = tested on: LOX IMVI melanoma
K-562 leukemia = tested on: K-562 leukemia
NCI-H522 lung = tested on: NCI-H522 lung
HCC-2998 colon = tested on: HCC-2998 colon
U251 CNS = tested on: U251 CNS
SK-MEL-28 melanoma = tested on: SK-MEL-28 melanoma
CCRF-CEM leukemia = tested on: CCRF-CEM leukemia
SNB-75 CNS = tested on: SNB-75 CNS
SK-MEL-5 melanoma = tested on: SK-MEL-5 melanoma
CAKI-1 renal = tested on: CAKI-1 renal
A498 renal = tested on: A498 renal
MOLT-4 leukemia = tested on: MOLT-4 leukemia
HOP-62 NSCLC = tested on: HOP-62 NSCLC
M14 melanoma = tested on: M14 melanoma
OVCAR-4 ovarian = tested on: OVCAR-4 ovarian
MDA-MB-435 = tested on: MDA-MB-435
MDA-N = tested on: MDA-N
NCI-H460 lung = tested on: NCI-H460 lung
HT29 colon = tested on: HT29 colon
OVCAR-8 ovarian = tested on: OVCAR-8 ovarian
NCI-H226 lung = tested on: NCI-H226 lung
HL-60(TB) leukemia = tested on: HL-60(TB) leukemia
SR leukemia = tested on: SR leukemia
SF-539 CNS = tested on: SF-539 CNS
EKVX NSCLC = tested on: EKVX NSCLC
HOP-92 NSCLC = tested on: HOP-92 NSCLC
RXF 393 renal = tested on: RXF 393 renal
SK-OV-3 ovarian = tested on: SK-OV-3 ovarian
NCI/ADR-RES ovarian = tested on: NCI/ADR-RES ovarian
SF-295 CNS = tested on: SF-295 CNS
HS 578T breast = tested on: HS 578T breast
KM12 colon = tested on: KM12 colon

Measured: TGI

O=c1/c(=C\c2ccccc2)sc2n1C(c1ccccc1)C1(O)CCCCC1N=2 (stereo not drawn)
not listed: SF-539 CNS | EKVX NSCLC | HOP-92 NSCLC | RXF 393 renal | SK-OV-3 ovarian | NCI/ADR-RES ovarian | SF-295 CNS | HS 578T breast | KM12 colon
> 100 µM: all other assays above

CC12CCC(C(=O)O1)C(C)(C)O2 (stereo not drawn)
not listed: T-47D breast | SK-MEL-5 melanoma
> 100 µM: all other assays above
